Here are results for 45 compounds from PubChem BioAssay AID651717 (Broad Institute, 2012).

In the assay the test system is mESC Bmi1-luciferase reporter, firefly/renilla ratio, 24 h. Nature of the assay: Bmi1-luciferase reporter activators in mESC, dose response, esBAF inhibitor project, mouse embryonic stem cells, cherry-pick (AID 651717;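 note: luciferase knocked into Bmi1 locus with EF-1a renilla as cell number control; rising ratio signals esBAF inhibition which derepresses Bmi1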). (In a reporter assay the amount or activity of a reporter protein is the signal.)
`Cc1csc(N/N=C/c2ccccc2F)n1`: the AC40 is 1.01 µM.

`Oc1ccccc1C=NN1CCCCCC1`: the AC40 was 1.93 µM.

With `Cc1ccccc1C(=O)c1cccn1CC(=O)NCc1ccccc1Cl`, the AC40 was 9.17 µM.

Regarding `O=C(CN1CCCCC1)Nc1nc(-c2ccccc2)cs1`, the AC40 was 11.5 µM.

For `CSc1nnc(NC(=O)c2cc3ccccc3oc2=O)s1`, the AC40 is 5.97 µM.

For the compound `COc1ccc(-c2ccc(OC)cc2)cc1`, the AC40 is 4.64 µM.

Take `COC(=O)N1CCCC(c2cc(C(=O)Nc3ccccc3Cl)no2)C1` (stereo not given): the AC40 is 3.3 µM.

With `O=C(Nc1ccc(Nc2ccccc2)cc1)Nc1ccccc1Cl`, the AC40 is 4.5 µM.

With `Cc1ccc(CNC(=O)c2ccc(Cn3cc(-c4ccc(C)cc4)nc3-c3ccncc3)cc2)cc1`, the AC40 was 1.77 µM.

As to `COc1ccc(NC(=O)Nc2cc(C)ccc2F)cc1`, the AC40 was 0.738 µM.

Regarding `CCN(C(=O)c1cc2c(=O)n3cccc(C)c3nc2s1)C1CCCCC1`, the AC40 was 25.1 µM.

With `Cc1ccc(NC(=O)c2cccc3ccccc23)cc1`, the AC40 was 13.9 µM.

Regarding `CN(Cc1ccccn1)C(=O)c1cc(COc2ccc(F)c(F)c2)on1`, the AC40 was 3.82 µM.

On to `COc1ccc(-n2nc(C(=O)NCC(=O)N3CCCC3)c3ccccc3c2=O)cc1Cl`, for which the AC40 is 20.9 µM.

Turning to `Clc1ccc(-c2nc(Cc3ccccc3)no2)cc1`, the AC40 is 1.85 µM.

For the compound `Cc1cc(Br)ccc1OCc1nc(-c2cccnc2)no1`, the AC40 was 9.06 µM.

For the compound `COc1ccc(/C=N/NC(=O)Cc2cccs2)cc1`, the AC40 was 8.51 µM.

Turning to `COc1ccc(N2CCN(C(=O)C3Cc4ccccc4CN3C(=O)c3ccccc3)CC2)cc1` (stereo not given), the AC40 was 16.5 µM.

As for `O=C(Nc1ccc(Cl)cc1Cl)c1csc(-c2cccnc2)n1`, the AC40 was 6.82 µM.

On to `COc1ccc(-c2cc(C(=O)N3CCN(c4ccccc4)CC3)no2)cc1`, for which the AC40 is 5.94 µM.

`Cc1c(C(=O)N2CCCc3ccccc32)sc2nc(-c3ccccc3)cn12`: the AC40 is 12.5 µM.

Take `CC(=O)c1ccc(NC(=O)C2CC(=O)N(Cc3ccccc3)C2)cc1` (stereo not given): the AC40 was 3.25 µM.

For the compound `Cc1cc2nc(N3CCN(C(=O)c4cccs4)CC3)sc2cc1C`, the AC40 is 1.98 µM.

Turning to `CCc1nc(SCc2ccc(Br)cc2)n[nH]1`, the AC40 was 2.5 µM.

For the compound `CC(=O)Nc1ccc(CNc2nc3cc(-c4ccc(F)cc4)sc3c(=O)n2C)cc1`, the AC40 is 1.69 µM.

Turning to `CSc1cccc(NC(=O)N2CCc3ccc(NC(=O)c4ccccn4)cc3C2)c1`, the AC40 is 4.23 µM.

For `COc1cccc(NC(=O)N2CCc3nc(Nc4ccc(C(C)C)cc4)ncc3C2)c1`, the AC40 was 29.9 µM.

Take `Nc1n[nH]c(N)c1N=Nc1ccc(Cl)cc1`: the AC40 is 6.31 µM.

On to `CCCC1CCC(c2nc(-c3cccnc3)no2)CC1` (stereo not given), for which the AC40 was 2.04 µM.

In the case of `COc1ccc(Nc2cc(C)c3c(O)cccc3n2)cc1`, the AC40 is 3.84 µM.

In the case of `COc1ccc(C(=O)NCCS(=O)(=O)NCCc2ccccc2)cc1`, the AC40 is 0.726 µM.

On to `COc1ccc(CNc2nc3ccccc3s2)cc1OC`, for which the AC40 was 3.7 µM.

Take `O=C(Nc1ccc(F)cc1F)NC1CCCCCCC1`: the AC40 is 5.14 µM.

`CC(=O)Nc1ccc(-c2nnc(SCC(=O)Nc3ccc4c(c3)oc3ccccc34)n2C)cc1`: the AC40 is 6.97 µM.

For the compound `COc1ccccc1CNc1nc2cc(-c3sccc3C)sc2c(=O)n1C`, the AC40 is 6.95 µM.

As for `C=CCNc1oc(-c2ccc(OC)cc2)nc1C#N`, the AC40 is 3.54 µM.

As to `Cc1cccc(COc2ccc(/C=N/NC(=O)c3nnn(-c4nonc4N)c3CN3CCCCC3)cc2)c1`, the AC40 is 34.2 µM.

Consider `Cc1sc2c(c1C)CN(C(C)(C)C)CN2C(=O)c1ccccc1`, for which the AC40 is 1.37 µM.

For the compound `O=C(c1ccc(Cl)cc1)c1cnc(-c2ccc(Cl)cc2)s1`, the AC40 was 2.84 µM.

`O=C(c1cccs1)N(C(=O)c1cccs1)c1ccc(Br)cn1`: the AC40 is 1.09 µM.

Turning to `CCn1c(=N)n(CC(=O)c2cccc(OC)c2)c2ccccc21`, the AC40 was 8.58 µM.

For `Nc1nc(SCc2ccccc2)sc1C(=O)N1CCCCC1`, the AC40 was 2.53 µM.

In the case of `CC1(C)Cc2c(c(N3CCCC3)nc3sc(C(=O)Nc4ccccc4)c(N)c23)CO1`, the AC40 is 6.24 µM.

With `C=CCN(C(=O)C1CC(=O)N(C2CCCC2)C1)c1nc(-c2ccc(S(C)(=O)=O)cc2)cs1` (stereo not given), the AC40 is 34.4 µM.

Take `N/C(=N\OC(=O)Cc1cccs1)c1ccc(Cl)cc1`: the AC40 was 18.1 µM.
